In patent US20140301947A1, “METHODS TO PREDICT BINDING AFFINITY OF TSPO IMAGING AGENTS TO TSPO” (IMPERIAL INNOVATIONS LIMITED, priority 2011, published 2014):
Several values for one entry are separate records, joined by “and”; a condition that tells them apart may be missing. Equal values may be shown once. Read-outs that look alike come from different tables or passages of the source.

What was measured:
[1] = test system: TSPO; experiment: Competition binding with [3H]PK11195 in human brain (method of J Nucl Med 2011;52:24-32); conditions: for ratio of specific signal, LAB: LAB set to 1; for LAB/HAB: ratio of Ki LAB to Ki HAB; for ratio of specific signal, HAB / ratio of specific signal, MAB: relative to LAB = 1
From the text: (§1) Thus, for example, the binding affinity of the compound may be determined in tissue derived from a HAB and in tissue derived from a LAB. An appropriate method may comprise the following steps: • obtain samples from human volunteers of tissue which contains TSPO (for example brain (for example for archive samples) or platelets (for example from blood)).
(§2) In more detail, as an example, a 48 well plate may be used, for example with 8-12 different concentrations of experimental drug for each experiment (be it the radiolabelled drug for saturation studies or the un-radiolabelled drug for competition studies). Concentrations may range from around 0.1 nM, increasing in roughly half logs (ie 0.1 nM, 0.3 nM, 1 nM, 3 nM etc) up to around 10,000 nM. 3-4 wells may be used for each concentration and the average taken to increase the precision around the estimate for each data point. The amount of tissue material required depends on how much TSPO is in the chosen tissue. For brain ˜100 micrograms of protein in each well (500 microlitres) may typically be used, giving a protein concentration of ˜200 micrograms/ml. Similar amounts may be used for platelets. For a tissue with very high TSPO levels (eg adrenal gland) a lot less protein would be needed.

[2] = target: T1, TSPO (Homo sapiens, UniProt P30536); experiment: as above; parameters: Ki MAB; Vinpocetine Ki, MAB; conditions: mixed affinity binders, single value, human brain; read-out: Ki MAB
From the text: as §1, §2

[3] = target: T1, TSPO; experiment: as above; parameters: from tissue; host or cells: human brain (membrane preparation, by the cited method)
From the text: as §1, §2
Target sequence in this assay (P30536 2-169): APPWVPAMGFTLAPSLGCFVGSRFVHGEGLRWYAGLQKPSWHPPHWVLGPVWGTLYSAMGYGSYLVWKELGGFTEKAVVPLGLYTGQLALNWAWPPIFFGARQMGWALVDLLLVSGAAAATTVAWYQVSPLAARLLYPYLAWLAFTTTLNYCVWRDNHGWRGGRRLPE

[4] = target: T2, TSPO (Homo sapiens, UniProt P30536, T147A); experiment: as above; parameters: from tissue; host or cells: human brain (membrane preparation, by the cited method); conditions: human brain
From the text: as §1, §2

[5] = test system: TSPO; experiment: Autoradiography with [18F]FEPPA on slides previously characterised with [3H]PBR28; type: binding; conditions: LAB slide versus HAB and MAB slides
From the text: FIG. 4: Autoradiograhpy (above) with [^18F]FEPPA (structure below). The sample slides in the figure have been previously characterised with [^3H]PBR28 and are all from HABs and MABs, but for the slide second from the left which is a LAB.

[6] = test system: TSPO; experiment: Competition radioligand binding assay with [3H]PK11195 and unlabelled GE1 in HABs and LABs; parameters: species or system human; conditions: LAB mean Ki / HAB mean Ki
Experimental: (§3) FIG. 6: Competition radioligand binding assay with [3H]
(§4) Binding assays were performed as for the other compounds, as described above. The compound concentrations used were 10000 nM, 3000 nM. 1000 nM, 300 nM, 100 nM. 30 nM, 10 nM, 3 nM, 1 nM, 0.3 nM and 0.03 nM. 6 HABS and 6 LABs were used.

[7] = target: T1, TSPO; experiment: as above; parameters: from tissue; host or cells: human brain (membrane preparation, by the cited method)
Experimental: as §3, §4
Target sequence in this assay (P30536 2-169): as above

[8] = target: T2, TSPO; experiment: as above; parameters: from tissue; host or cells: human brain (membrane preparation, by the cited method)
Experimental: as §3, §4

[9] = target: T1, TSPO; experiment: Competition binding assay, unlabelled PBR28 displacing [3H]PK11195 in human platelet membranes; parameters: from tissue; conditions: platelets, mean±SEM
Experimental: (§5) The study protocol, volunteer information and informed consent forms were approved by the local Research Ethics Committee. Forty-one healthy volunteers (29 male, 12 female, mean age 36.3±1.4 years) were recruited. […] Venous blood (50 ml) was drawn into EDTA-containing tubes, and separated into a lymphocyte-rich bottom layer (for genetic analysis) and platelet-rich top layer by centrifugation (180×g, 15 min, 4° C.). The platelet-rich layer (for binding assays) was re-centrifuged (1800×g, 15 min, 4° C.) to produce a platelet-containing pellet. Platelet membranes were prepared as previously described (5).
(§6) Binding data were analysed using GraphPad Prism 5.0. Single site and two site competition models were fitted using the least squares algorithm and model selection was compared using an F-test. The null hypothesis, that the data fitted a single site model, was rejected if the p value was less than 0.05. […] MABs were defined as subjects with two binding sites. Data are expressed as the mean±standard error of the mean (SEM).
Target sequence in this assay (P30536 2-169): as above

[10] = target: T2, TSPO; experiment: as above; parameters: from tissue; conditions: platelets, mean±SEM
Experimental: as §5, §6

[11] = target: T1, TSPO; parameters: from tissue; host or cells: human brain (membrane preparation, by the cited method); conditions: background, reference (5); read-out: Ki values for LABs; cited from earlier work
Target sequence in this assay (P30536 2-169): as above

[12] = target: T2, TSPO; parameters: from tissue; host or cells: human brain (membrane preparation, by the cited method); conditions: background, reference (5); read-out: Ki values for HABs; cited from earlier work
[13] = target: TSPO; experiment: Competition binding assay with [3H]PK11195 and unlabelled vinpocetine in human brain membranes; conditions: average of HAB and LAB means; read-out: mean Ki value of HABs and LABs
Experimental: (§7) Tissue was obtained from the UK Multiple Sclerosis (MS) Tissue Bank at Imperial College. All tissue blocks obtained included only “normal appearing” tissue, without immunohistochemical evidence of demyelination or significant inflammatory infiltrate. The tissue was stored at −80° C. until use. Tissue blocks from 15 donors (5 each from HAB, MAB and LAB donors) were used. The binding affinity classification for each tissue block had been established previously using PBR28 (Owen et al. 2010).
(§8) Tissue blocks were homogenised in 10 times weight for volume (w/v) buffer ([…], 5 mM Tris base, 1 mM MgCl2, pH 7.4, 4° C.). […]
(§9) Following incubation, assays were terminated via filtration through Whatman GF/B filters, followed by 3×1 ml washes with ice-cold wash buffer (50 mM Tris Base, 1.4 mM MgCl2, pH 7.4, 4° C.). […] Scintillation fluid (4 ml/vial, Perkin Elmer Ultima Gold MV) was added and vials counted on a Perkin Elmer Tricarb 2900 liquid scintillation counter. […] Ki (nM) values were determined using GraphPad Prism 5.0 software (GraphPad Software Inc, USA).
(§10) Protein concentrations (μg protein/ml) were determined using the Bicinchoninic acid assay (BCA Kit, Sigma-Aldrich, UK) and absorption read at 562 nm.
(§11) Data were analysed using the iterative non-linear regression curve fitting software supplied with GraphPad Prism 5.0. […] Data are expressed as the mean (standard error of the mean). […]

[14] = target: T3, TSPO (Rattus norvegicus, UniProt P16257); conditions: rat heart; cited from earlier work
T3 construct: 200 nM in the rat heart (Gulyas et al. 2005); host or cells: rat heart

[15] = test system: sodium channels, calcium channels, phosphodiesterases or NF-κB; conditions: cited from earlier work
[16] = target: T1, TSPO; conditions: high affinity interaction (<100 nM) excluded; not formally measured; cited from earlier work
Target sequence in this assay (P30536 whole entry): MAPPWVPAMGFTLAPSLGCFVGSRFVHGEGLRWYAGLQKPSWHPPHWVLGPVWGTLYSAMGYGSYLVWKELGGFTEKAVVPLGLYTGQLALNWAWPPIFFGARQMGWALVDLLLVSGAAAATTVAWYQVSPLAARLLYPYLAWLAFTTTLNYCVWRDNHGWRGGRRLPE

[17] = target: T1, TSPO; experiment: Competition binding assay with [3H]PK11195 and unlabelled vinpocetine in human brain membranes; parameters: Ki MAB; Vinpocetine Ki, MAB; conditions: A/T subjects, mixed affinity binder, human brain, mean (SEM), read-out: Vinpocetine Ki, MAB
Experimental: as §7, §8, §9, §10, §11

[18] = target: T2, TSPO; experiment: as above; parameters: from tissue; host or cells: human brain (membrane preparation, by the cited method); conditions: A/A subjects, high affinity binder, human brain, mean (SEM); read-out: Vinpocetine Ki, HAB
Experimental: as §7, §8, §9, §10, §11

[19] = low affinity binders, human brain, read-out: Ki LAB
[20] = high affinity binders, nM, read-out: Ki HAB
[21] = grouping of ligands into 3 distinct affinities, read-out: affinity for the "Low Affinity receptor"
[22] = mixed affinity binders, two values given, human brain, read-out: Ki MAB, second (low affinity) value
[23] = mixed affinity binders, two values given, read-out: Ki MAB, first (high affinity) value

T2 sequence (P30536 2-169 T147A): as the sequence (P30536 2-169) above, with T146A counted along it

Compound	ratio of specific signal, LAB [1]	LAB/HAB [1]	ratio of specific signal, HAB [1]	ratio of specific signal, MAB [1]	Ki [2] [nM]	Ki [3, 19] [nM]	Ki [4, 20] [nM]	also measured
COc1ccc(OC)c(CN(C(C)=O)c2cc(F)ccc2Oc2ccccc2)c1 [DAA1106]	1	4.7	4.7	2.9	4.8 ± 0.4	13.1 ± 1.3	2.8 ± 0.3	–
CCN(Cc1ccccc1)C(=O)Cn1c(=O)n(C)c2cnc(-c3ccccc3)nc21 [Emapunil]	–	12.6	–	–	10.5 ± 0.99	30.3 ± 8.7	2.4 ± 0.67	Ki [3, 21]: < 31 nM
CC(=O)N(Cc1ccccc1OCCF)c1cnccc1Oc1ccccc1 [FEPPA]	–	–	–	–	–	–	–	autoradiography signal [5]: lack of signal for the LAB
CCN(CC)C(=O)C1CCCC2C1c1c(OC)cccc1N2CCF (stereo not shown) [GE1]	1	11.8	11.8	6.4	–	145 ± 22.1	12.3 ± 2.1	Affinity shift [6]: 11.8 fold; Ki ([7]; 6 LABs, racemate, read-out: Ki, mean of LABs): 145 nM; IC50 ([7]; individual LAB subjects, 5 nM [3H]PK11195): 103 nM and 108 nM and 162 nM and 135 nM and 276 nM and 170 nM; Ki ([7]; individual LAB subjects, read-out: Ki): 87.7 nM and 91.9 nM and 138 nM and 115 nM and 235 nM and 145 nM; Ki ([8]; 6 HABs, racemate, read-out: Ki, mean of HABs): 12.3 nM; IC50 ([8]; individual HAB subjects, 5 nM [3H]PK11195): 4.51 nM and 16.1 nM and 10.7 nM and 14.9 nM and 21.2 nM and 19.3 nM; Ki ([8]; individual HAB subjects, read-out: Ki): 3.85 nM and 13.8 nM and 9.12 nM and 12.7 nM and 18.1 nM and 16.5 nM
COc1ccc(OC)c(CN(C(=O)CF)c2ccccc2Oc2ccccc2)c1 [PBR06]	1	17	17.3	9.2	–	149 ± 46.6	8.6 ± 2	Ki [3, 22]: 176 nM; Ki [4, 23]: 13.4 nM
CC(=O)N(Cc1ccccc1O[11CH3])c1cnccc1Oc1ccccc1 [PBR28]	1	55	55.3	28.2	–	–	–	–
COc1ccccc1CN(C(C)=O)c1cnccc1Oc1ccccc1 [PBR28]	–	–	–	–	–	188 ± 7	3.4 ± 0.2	Ki ([9]; LABs (2/41 subjects), read-out: Ki, single class of low affinity sites): 187 ± 19.7 nM; Ki ([9]; MABs (12/41 subjects), read-out: Ki, two-site model, low affinity site): 297 ± 43.3 nM; Ki ([10]; HABs (27/41 subjects), read-out: Ki, single class of high affinity sites): 2.17 ± 0.17 nM; Ki ([10]; MABs (12/41 subjects), read-out: Ki, two-site model, high affinity site): 2.23 ± 0.31 nM; Ki [3, 22]: 313 nM; Ki [4, 23]: 4 nM; Ki [11]: 200 nM; Ki [12]: 4 nM
CCN(CC)C(=O)Cc1c(-c2ccc(OCCCF)cc2)nc2ccc(Cl)cn12 [PBR111]	1	4	4.0	2.5	30.3 ± 4.1	61.8 ± 10.7	15.6 ± 3.7	Ki [3, 21]: ~60 nM; Ki [11]: 62 nM; Ki [12]: 16 nM
CCC(C)N(C)C(=O)c1cc2ccccc2c(-c2ccccc2Cl)n1 (stereo not shown) [PK11195, 1-(2-Chlorophenyl)-N-methyl-N-(1-methylpropyl)-3-isoquinolinecarboxamide]	–	–	–	–	–	–	–	difference in binding affinity to Ala147TSPO and Thr147TSPO ([1]; assay as in Owen et al (2011) J Nucl Med 52, 24-32): No significant difference in binding affinity has been detected
CCOC(=O)C1=C[C@]2(CC)CCCN3CCc4c(n1c1ccccc41)[C@@H]32 [Vinpocetine, ethyl apovincaminate]	–	–	–	–	–	–	–	Ki [13]: 443 nM; reported binding affinity [14]: 200 nM; concentrations required for these effects ([15]; phosphodiesterase inhibition, blockade of sodium and calcium channels): 1 to 44 µM; affinity for these targets (Ki) ([15]; sodium channels, calcium channels, phosphodiesterases or NF-κB): Ki in the uM range; binding affinity for the TSPO in humans [16]: ≥ 100 nM; Ki ([17]; listed as vinpocetine): 332 nM; Ki [17]: 332 nM; Ki [18]: 777 nM
